{"source": "patent US20080113900A1", "about": "“Pharmaceutical compositions and therapeutic applications for the use of a synthetic vitamin B12 derivative, glutathionylcobalamin” (priority 2006, published 2008)", "key": {"[1]": {"test_system": "SK-HEP-1 cells", "assay": "Effect of homocysteine and H2O2 on endothelial cell viability (MTS assay)", "details": "for Normalized Data Log 2, Mean / Normalized Data Log 10, Mean: Hcy alone, n = 6; for Cell viability (MTS assay): SK-HEP-1, 2 hours, n = 6 replicates"}, "[2]": {"test_system": "Hsp70", "assay": "Hsp70 gene expression (RT-PCR, densitometry)", "details": "SK-HEP-1, 30 μM, 2 hr", "protocol": "(§1) Cells were plated into 6-, 12-, or 24-well cell culture clusters, at 2×10^3, 2×10^5, or 1×10^5 cells per well and incubated until 90% confluent. Treatments were applied as above.\n(§2) Following incubation, cells were subjected to mRNA extraction followed by cDNA synthesis for each sample under test. Polymerase chain reaction cDNA templates were prepared for simplex PCR protocol. PCR products were then visualized using a UV Transilluminator and images captured using a Kodak ID gel imaging system. Densitometry and statistical analysis was then performed on each gene expression band image using PSP® v 10.0 running under Windows XP®.\n(§3) mRNA extraction was performed using the Quickprep micro mRNA Purification Kit. Following incubation of cells post-treatment, the media was removed from the cells, adherent cells were re-suspended in 0.4 ml extraction buffer and 0.8 ml elution buffer at 65° C. was added.\nA reaction mixture was prepared in individual microcentrifuge tubes containing 2 cDNA synthesis beads, 32 μl of the mRNA solution and 1 μl of pd(N)6. This mixture was incubated at 37° C. in a water bath for 60 minutes. After incubation, 27 μl of RNase-free DEPC treated water was added to each tube to make a total volume 60 μl. cDNA samples were prepared in duplicate. Sample 1 was used immediately in RT-PCR protocol.\nMicrocentrifuge tubes from puReTaq™Ready-To-Go™ PCR Beads containing one PCR bead were labeled for each sample required. Added to the PCR bead were 17 μl of RNase-free DEPC treated water, 1 μl sense primer, 1 μl anti-sense primer and 5 μl of the cDNA solution. RT-PCR conditions were as follows: Hsp70 and β-actin, pre-treatment step, 94° C. for 1 minute, followed by denaturing at 92° C. for 1 minute, annealing at 60° C. for 1 minute and extension at 72° C. for 1 minute. Total cycles, 30, post-treatment was then carried out at 72° C. for 10 minutes. For Hsp32, pre-treatment step, 95° C. for 2 minutes, followed by denaturing at 94° C. for 30 seconds, annealing at 58° C. for 1 minute and extension at 72° C. for 1 minute. […]"}, "[3]": {"test_system": "Hsp32", "assay": "Hsp32 gene expression (RT-PCR, densitometry)", "assay_type": "cell-based, human", "protocol": "as §1, §2, §3\nA reaction mixture was prepared in individual microcentrifuge tubes containing 2 cDNA synthesis beads, 32 μl of the mRNA solution and 1 μl of pd(N)6. This mixture was incubated at 37° C. in a water bath for 60 minutes. After incubation, 27 μl of RNase-free DEPC treated water was added to each tube to make a total volume 60 μl. cDNA samples were prepared in duplicate. Sample 1 was used immediately in RT-PCR protocol. Sample 2 was prepared for qPCR protocol by the addition of 150 μl of 95% ice-cold ethanol and stored at −20° C.\nMicrocentrifuge tubes from puReTaq™Ready-To-Go™ PCR Beads containing one PCR bead were labeled for each sample required. Added to the PCR bead were 17 μl of RNase-free DEPC treated water, 1 μl sense primer, 1 μl anti-sense primer and 5 μl of the cDNA solution. RT-PCR conditions were as follows: Hsp70 and β-actin, pre-treatment step, 94° C. for 1 minute, followed by denaturing at 92° C. for 1 minute, annealing at 60° C. for 1 minute and extension at 72° C. for 1 minute. Total cycles, 30, post-treatment was then carried out at 72° C. for 10 minutes. For Hsp32, pre-treatment step, 95° C. for 2 minutes, followed by denaturing at 94° C. for 30 seconds, annealing at 58° C. for 1 minute and extension at 72° C. for 1 minute. Total cycles 45, post treatment was then carried out at 72° C. for 10 minutes. Following RT-PCR, samples were stored at −20° C.\nGels were visualised on a UV Transilluminator. Photographs were stored using a Kodak Digital camera system fitted with a UV filter set connected to a PC. Images were then transferred to the Kodak ID gel imaging system. Densitometry was performed on each gene expression band using PSP™ v10 running under Windows XP®.\nExperiments were conducted using Hsp32 and Hsp 70 gene expression as the basis for study. […] The densitometric data are presented as means ±SEM of n=3 separate experiments. *p<0.05 or **p<0.01, treatment vs. control."}, "[4]": {"test_system": "SK-HEP-1 cells", "assay": "NACCbl protection from homocysteine with inhibition of Hsp32/Hsp70 by Sn(IX) protoporphyrin, quercitin or siRNA (MTS assay)", "details": "listed as Hcy"}, "[5]": {"assay": "in vitro", "details": "human, SK-HEP-1 cells"}, "[6]": {"test_system": "SK-HEP-1 cells", "assay": "Protection of endothelial cells from homocysteine-induced cell death (MTS assay)", "assay_type": "cell-based, human", "method": "The effect of a constant concentration of NACCbl and GSCbl to protect cells against variable concentrations of homocysteine was assessed. […] Cell viability was determined by MTS® assay. Data shown in FIG. 4 are representative of means ±SE of 6 independent samples. FIG. 4 illustrates that NACCbl (▪) and GSCbl (▴) protect endothelial cells from the effect of homocysteine. […] Cell viability was determined by MTS® assay. […] There was a decrease in protection as homocysteine concentration increased, but there was still ˜60% survival at 50 μM homocysteine.\nThe data was normalized (log 2 and log 10) as shown in FIGS. 16 and 17 and Tables 16 and 17, respectively, below."}, "[7]": {"test_system": "SK-HEP-1 cells", "assay": "Protection from homocysteine-induced apoptosis, Caspase-3 activity (apoptosis assay)", "assay_type": "cell-based, human", "details": "30 μM two hours, then 30 μM homocysteine two hours", "method": "Caspase 3 is activated when cells undergo apoptosis. Caspase-3 assay is a standard for apoptosis assay. Homocysteine is a known inducer of apoptosis. Cells were cultured in 96-well plates for 24 hours and then treated with reagents under test conditions. Cytotoxic agents, H2O2 and etoposide were added to negative control wells. The assay was performed according to the manufacturer's protocol, as follows: Cells were re-suspended in 100 μl of clear media and 50 μl of Caspase-3 substrate solution was immediately added to each test well. […] Cell viability was determined by MTS® assay. […] Cell viability was determined by MTS® assay."}}, "note": "Where “and” joins values, the source holds several entries; their conditions need not be identical. Equal entries are not always repeated. Structures can show the parent of a compound that is named as a salt.", "data": [{"smiles": "NC(CCS)C(=O)O", "note": "(racemic) [Homocysteine, DL-Homocysteine]", "values": [{"measurement": "Normalized Data Log 2, Mean", "setting": "[1]; conc. 1.780", "result": 59.351}, {"measurement": "Normalized Data Log 10, Mean", "setting": "[1]; conc. 1.780", "result": 89.537}, {"measurement": "Normalized Data Log 2, Mean", "setting": "[1]; conc. 3.125", "result": 48.077}, {"measurement": "Normalized Data Log 10, Mean", "setting": "[1]; conc. 3.125", "result": 73.700}, {"measurement": "Normalized Data Log 2, Mean", "setting": "[1]; conc. 6.250", "result": 34.347}, {"measurement": "Normalized Data Log 10, Mean", "setting": "[1]; conc. 6.250", "result": 54.413}, {"measurement": "Normalized Data Log 2, Mean", "setting": "[1]; conc. 12.500", "result": 32.253}, {"measurement": "Normalized Data Log 10, Mean", "setting": "[1]; conc. 12.500", "result": 51.471}, {"measurement": "Normalized Data Log 2, Mean", "setting": "[1]; conc. 25.000", "result": 19.208}, {"measurement": "Normalized Data Log 10, Mean", "setting": "[1]; conc. 25.000", "result": 33.145}, {"measurement": "Normalized Data Log 2, Mean", "setting": "[1]; conc. 50.000", "result": 14.935}, {"measurement": "Normalized Data Log 10, Mean", "setting": "[1]; conc. 50.000", "result": 27.142}, {"measurement": "Normalized Data Log 2, Mean", "setting": "[1]; conc. 100.000", "result": 6.164}, {"measurement": "Normalized Data Log 10, Mean", "setting": "[1]; conc. 100.000", "result": 14.820}, {"measurement": "Normalized Data Log 2, Mean", "setting": "[1]; conc. 200.000", "result": "−0.033"}, {"measurement": "Normalized Data Log 10, Mean", "setting": "[1]; conc. 200.000", "result": 6.115}, {"measurement": "Concentration achieving greater than 90% death (<10% survival)", "setting": "[1]; SK-HEP-1, 2 hours", "result": 25, "unit": "µM"}, {"measurement": "Concentration that killed cells", "setting": "[1]; SK-HEP-1, 2 hours, p<0.001", "result": "≥ 5", "unit": "µM"}, {"measurement": "Cell viability (MTS assay)", "setting": "[1]; 0.781 μM", "result": "98.11 and 102.5676 and 102.4576 and 98.72 and 98.39"}, {"measurement": "Cell viability (MTS assay)", "setting": "[1]; 1.562 μM", "result": "100.5319 and 102.4026 and 85.18 and 81.33 and 81.6 and 98.83"}, {"measurement": "Cell viability (MTS assay)", "setting": "[1]; 3.125 μM", "result": "91.62 and 82.82 and 78.3 and 80.94 and 91.78"}, {"measurement": "Cell viability (MTS assay)", "setting": "[1]; 6.25 μM", "result": "62.02 and 28.4 and 38.2485 and 48.6474 and 67.63 and 55.0298"}, {"measurement": "Cell viability (MTS assay)", "setting": "[1]; 25 μM", "result": "1.495 and 0.5044 and 0.1192"}, {"measurement": "Cell viability (MTS assay)", "setting": "[1]; 50 μM", "result": "0.2843 (2×) and 0.9445 and 1.44 and 3.255"}, {"measurement": "Hsp70 gene expression", "setting": "[2]", "result": "increase in expression"}, {"measurement": "Hsp32 gene expression", "setting": "[3]; SK-HEP-1, 30 μM, 2 hr", "result": "increase in expression"}, {"measurement": "Hsp32 gene expression", "setting": "[3]; SK-HEP-1, Sn (IX) protoporphyrin 25 μM, Quercitin 15 μM", "result": "induced"}, {"measurement": "Cell viability by MTS assay (FIG. 11), replicates 1-6", "setting": "[4]; SK-HEP-1, NACCbl 30 μM two hours with or without Sn(IX)PP/quercetin, then Hcy conc. 200 two hours, label Hcy = Hcy alone", "result": "0.33 and 0.312 and 0.39 and 0.302 and 0.421 and 0.406"}, {"measurement": "Cell viability by MTS assay (FIG. 11), replicates 1-6", "setting": "[4]; as E45, Hcy conc. 1.78", "result": "1.746 and 1.932 and 1.95 and 1.83 and 1.837 and 1.884"}, {"measurement": "Cell viability by MTS assay (FIG. 11), replicates 1-6", "setting": "[4]; as E45, Hcy conc. 3.125", "result": "1.543 and 1.487 and 1.656 and 1.63 and 1.593 and 1.558"}, {"measurement": "Cell viability by MTS assay (FIG. 11), replicates 1-6", "setting": "[4]; as E45, Hcy conc. 6.25", "result": "1.304 and 1.406 and 1.227 and 1.176 and 1.15 and 1.119"}, {"measurement": "Cell viability by MTS assay (FIG. 11), replicates 1-6", "setting": "[4]; as E45, Hcy conc. 12.5", "result": "1.104 and 1.001 and 1.042 and 1.114 and 1.324 and 1.479"}, {"measurement": "Cell viability by MTS assay (FIG. 11), replicates 1-6", "setting": "[4]; as E45, Hcy conc. 25", "result": "0.692 and 0.956 and 0.876 and 0.882 and 0.937 and 0.74"}, {"measurement": "Cell viability by MTS assay (FIG. 11), replicates 1-6", "setting": "[4]; as E45, Hcy conc. 50", "result": "0.678 and 0.881 and 0.602 and 0.77 and 0.724 and 0.779"}, {"measurement": "Cell viability by MTS assay (FIG. 11), replicates 1-6", "setting": "[4]; as E45, Hcy conc. 100", "result": "0.654 and 0.449 and 0.466 and 0.501 and 0.522 and 0.51"}, {"measurement": "viability at 2 h, 0.781 µM", "setting": "[5]", "result": 99.8, "unit": "%"}, {"measurement": "viability at 2 h, 3.125 µM", "setting": "[5]", "result": 96, "unit": "%"}, {"measurement": "Absorbance at 490 nm, Mean", "setting": "[6]; SK-HEP-1, NACCbl 30 μM, NAC 75 μM, Hcy conc. 200.000, n = 6, label Hcy = Hcy alone", "result": 0.360}, {"measurement": "Mean (FIG. 14, protection of SK-HEP-1 cells from Hcy)", "setting": "[6]; [Hcy] 30 μM, [NAC] = 45 μM, [NACCbl] = 12.5 μM, [Folate] = 25 μM where named in the label, label Hcy/HCy = Hcy alone", "result": 0.616}, {"measurement": "Absorbance at 490 nm, Mean", "setting": "[6]; as E80, Hcy conc. 1.780", "result": 1.863}, {"measurement": "Absorbance at 490 nm, Mean", "setting": "[6]; as E80, Hcy conc. 3.125", "result": 1.578}, {"measurement": "Absorbance at 490 nm, Mean", "setting": "[6]; as E80, Hcy conc. 6.250", "result": 1.230}, {"measurement": "Absorbance at 490 nm, Mean", "setting": "[6]; as E80, Hcy conc. 12.500", "result": 1.177}, {"measurement": "Absorbance at 490 nm, Mean", "setting": "[6]; as E80, Hcy conc. 25.000", "result": 0.847}, {"measurement": "Absorbance at 490 nm, Mean", "setting": "[6]; as E80, Hcy conc. 50.000", "result": 0.739}, {"measurement": "Absorbance at 490 nm, Mean", "setting": "[6]; as E80, Hcy conc. 100.000", "result": 0.517}]}, {"smiles": "CN1c2c(nc(N)[nH]c2=O)NC[C@@H]1CNc1ccc(C(=O)N[C@@H](CCC(=O)O)C(=O)O)cc1", "note": "[folate, 5-Methyltetrahydrofolic acid disodium salt]", "values": [{"measurement": "Hsp70 gene expression", "setting": "[2]", "result": "increase in expression"}, {"measurement": "Hsp32 gene expression", "setting": "[3]; SK-HEP-1, 30 μM, 2 hr", "result": "increase in expression"}, {"measurement": "Protection against apoptosis induced by homocysteine", "setting": "[7]", "result": "partial protection"}]}]}
